Experimental data reported in US20200255844A1, “MULTIPLEXED RECEPTOR-LIGAND INTERACTION SCREENS” (THE REGENTS OF THE UNIVERSITY OF CALIFORNIA, priority 2017, published 2020).

Assays:
MOR132-1 = biological target: T1, MOR132-1 (Mus musculus, UniProt Q8VFM9); assay: High-throughput multiplexed odorant screening (Smell-seq), barcode RNA-seq readout; format: cell-based; conditions: OR MOR132-1; pair called as hit, FDR=1%
T1 construct: protein trafficking tags (N); expressed in transfected cells; host or cells: HEK293T-derived cells (Mukku3a), PiggyBac transposon, Tet-On inducible
T1 sequence (Q8VFM9 whole entry): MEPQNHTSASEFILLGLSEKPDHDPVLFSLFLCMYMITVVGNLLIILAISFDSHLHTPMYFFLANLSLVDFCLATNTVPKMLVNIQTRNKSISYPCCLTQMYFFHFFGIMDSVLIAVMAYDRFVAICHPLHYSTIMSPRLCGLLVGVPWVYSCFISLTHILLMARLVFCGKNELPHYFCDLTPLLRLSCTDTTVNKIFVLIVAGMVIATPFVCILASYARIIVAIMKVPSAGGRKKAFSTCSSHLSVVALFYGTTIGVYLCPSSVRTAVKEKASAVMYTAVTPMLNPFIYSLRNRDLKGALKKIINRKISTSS
Excerpt: (§1) We subsequently screened 182 odorants at three concentrations in triplicate against the OR cell library, the equivalent of ˜85,000 individual luciferase assays including controls (FIG. 10A, Table 2). Each 96-well plate in the assay contained positive control odorants and solvent DMSO wells for normalization (FIG. 16). We used the EdgeR software package to determine differentially responsive ORs based on a negative binomial model of barcode counts. We found 114 OR-odorant interactions (out of 7,200 possible), 81 of which are novel, and 24 interactions with 15 orphan receptors (FIG. 10C, FIG. 17 and Supplementary Table 4) (FDR=1%; Benjamini-Hochberg correction). Overall 28 of 39 receptors were activated by at least one odorant, and 68 of 182 odorants activated at least one OR (Table 4). We chose 37 interactions of at least 1.2 fold induction to test individually with a previously developed transient OR assay that has several important differences (FIG. 18). Of the 28 interactions called as hits at an FDR of 1%, 21 of them replicated in this orthogonal system (FIG. 17). […] Conversely, we also detect 14 interactions that this previous study tested, but called negative.

MOR102-1 = assay: as above; format: cell-based, mouse; conditions: OR MOR102-1; pair called as hit, FDR=1%
Excerpt: as §1

MOR120-1 = assay: as above; format: cell-based, mouse; conditions: OR MOR120-1; pair called as hit, FDR=1%
Excerpt: as §1

MOR142-1 = assay: as above; format: cell-based, mouse; conditions: OR MOR142-1; pair called as hit, FDR=1%
Excerpt: as §1

MOR189-1 = assay: as above; format: cell-based, mouse; conditions: OR MOR189-1; pair called as hit, FDR=1%
Excerpt: as §1

MOR208-1 = assay: as above; format: cell-based, mouse; conditions: OR MOR208-1; pair called as hit, FDR=1%
Excerpt: as §1

MOR30-1 = assay: as above; format: cell-based, mouse; conditions: OR MOR30-1; pair called as hit, FDR=1%
Excerpt: as §1

MOR180-1 = biological target: T2, MOR180-1 (Mus musculus, UniProt Q8VGS3); assay: as above; format: cell-based; conditions: OR MOR180-1; pair called as hit, FDR=1%
T2 construct: protein trafficking tags (N); expressed in transfected cells; host or cells: HEK293T-derived cells (Mukku3a), PiggyBac transposon, Tet-On inducible
T2 sequence (Q8VGS3 whole entry): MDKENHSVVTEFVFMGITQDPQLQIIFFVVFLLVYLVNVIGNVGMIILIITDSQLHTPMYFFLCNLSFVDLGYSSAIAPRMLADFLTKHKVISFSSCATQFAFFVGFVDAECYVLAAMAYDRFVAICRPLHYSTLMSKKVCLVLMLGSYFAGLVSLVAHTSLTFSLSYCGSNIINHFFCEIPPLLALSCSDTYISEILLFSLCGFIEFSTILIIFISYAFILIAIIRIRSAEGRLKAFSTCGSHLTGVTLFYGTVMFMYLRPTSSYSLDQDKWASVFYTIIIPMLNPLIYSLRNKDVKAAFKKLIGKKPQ
Excerpt: as §1

MOR170-1 = assay: High-throughput multiplexed odorant screening (Smell-seq), 96-well, barcode RNA-seq readout; format: cell-based, mouse; conditions: OR MOR170-1; pair called as hit, FDR=1%
Protocol: 10. High-Throughput Odorant Screening
The OR library cell line was thawed from a liquid nitrogen frozen stock into a T-225 flask (Corning) three days before seeding into a 96-well plate for screening. The library was seeded at 6,666 cells per well in 100 ul of DMEM. 24 hours later a working concentration of 1 ug/ml of doxycycline in DMEM was added to the wells. 24 hours after induction, the media was removed from each plate and replaced with 25 ul of odorant diluted in OptiMEM. Each odor was added at three different concentrations (10 uM, 100 uM, 1 mM) in triplicate with the same amount of final DMSO (1%). Each plate contained two control odorants at a three concentration (10 uM, 100 uM, 1 mM) in triplicate and three wells containing 1% DMSO dissolved in media. The library was incubated with odorants for three hours in a cell culture incubator with the lids removed.
After odor incubation, media was pipetted out of the plates and cells were lysed by adding 25 uL of ice-cold Cells-to-cDNA II Lysis Buffer (Thermo Fisher) and pipetting up and down to homogenize and lyse cells. The lysate was then heated to 75° C. for 15 minutes and flash frozen with liquid nitrogen and kept at −80 C until further processing. Then 0.5 uL DNase I (New England Biolabs) was added to lysate, and incubated at 37° C. for 15 minutes. To anneal the RT primer, 5 ul of lysate from each well was combined with 2.5 ul of 10 mM dNTPs (New England Biosciences), 1 ul of 2 uM gene specific RT primer (OL003), and 1.5 ul of H2O. The reaction was heated to 65° C. for 5 min and cooled back down to 0° C. After annealing, 1 ul of M-MuLV Reverse Transcriptase (Enzymatics), 1 ul of buffer, and 0.25 ul of RNase Inhibitor (Enzymatics) were added to each reaction. Reactions were incubated at 42° C. for 60 min and the RT enzyme was heat inactivated at 85° C. for 10 min.
For each batch, qPCR was performed on a few wells (OL005F and OL013) with SYBR FAST qPCR Mastermix to determine the number of cycles necessary for PCR based library preparation. The reaction and cycling conditions are optimized as follows: 95° C. for 3 minutes, 40 cycles of 95° C. for 3 seconds and 60° C. for 20 seconds. After qPCR, 5 ul of each RT reaction was combined with 0.4 ul of 10 uM primers containing sequencing adaptors (OL005F and OL013), 10 ul of NEB-Next Q5 Mastermix (New England Biosciences) and 4.2 ul H2O, the PCR was carried out according to the manufacturer's protocol. The forward primer contains the P7 adaptor sequence and an index identifying the well in the assay and the reverse primer contains the P5 adaptor sequence and an index identifying the plate in the assay. PCR products were pooled together by plate and purified with the DNA Clean and Concentrator Kit. Library concentrations were quantified using a Tape Station 2200 and a Qubit (Thermo Fisher). The libraries were sequenced with two index reads and a single end 75-bp read on a NextSeq 500 in high-output mode (Illumina).
11. Analysis of Next-Generation Sequencing Data
Samples were identified via indexing by their PCR indexes adapters unique for each well (5′ end) and unique for each plate (3′ end). The well barcodes followed the 7 bp indexing scheme in (Illumina Sequencing Library Preparation for Highly Multiplexed Target Capture and Sequencing Matthias Meyer, Martin Kircher, Cold Spring Harb Protoc; 2010; doi:10.1101/pdb.prot5448). The plate indexing scheme followed the Illumina indexing scheme. Sequencing data was demultiplexed and 15 bp barcode sequences were counted with only exact matches by custom python and bash scripts.
12. Statistical Methods for Calling Hits
Count data was then analyzed using the differential expression package EdgeR. To filter out ORs with low representation, we set a cutoff that an OR had to contain at least 0.5% of the reads from more than 399 of the 1954 test samples. This filtered out 3 of 42 ORs which were underrepresented in the cell library (MOR172-1, MOR176-1 and MOR181-1). […]

MOR 199-1 = assay: High-throughput multiplexed odorant screening (Smell-seq), barcode RNA-seq readout; format: cell-based, mouse; conditions: OR MOR 199-1; pair called as hit, FDR=1%
Excerpt: as §1

Olfr62 = assay: as above; format: cell-based, mouse; conditions: OR Olfr62; pair called as hit, FDR=1%
Excerpt: as §1

`CC(=O)O[C@]1(C)CC[C@@]23C[C@@H]1C(C)(C)[C@@H]2CC[C@H]3C` [Cedryl acetate] was tested, and the “Minimum Activating Concentration” value (MOR132-1) was 1000 µM, the “Minimum Activating Concentration” value (MOR102-1) was 1000 µM and the “Minimum Activating Concentration” value (MOR120-1) was 1000 µM. For the same compound, the “Minimum Activating Concentration” value (MOR142-1) was 1000 µM, the “Minimum Activating Concentration” value (MOR189-1) was 1000 µM and the “Minimum Activating Concentration” value (MOR208-1) was 1000 µM. The “Minimum Activating Concentration” value (MOR30-1) was 1000 µM.

For `CCCCC/C(=C\c1ccccc1)C(OC)OC` [a-Amylcinnamaldehyde dimethyl acetal], the “Minimum Activating Concentration” value (MOR180-1) was 1000 µM.

With `CCc1occc(=O)c1O` [ethyl maltol] the “Minimum Activating Concentration” value (MOR170-1) was 1000 µM, the “Minimum Activating Concentration” value (MOR 199-1) was 100 µM and the “Minimum Activating Concentration” value (Olfr62) was 1000 µM.
